{
  "source": "paper PMC11530130",
  "about": "“Peripherally restricted PICK1 inhibitor mPD5 ameliorates pain behaviors in murine inflammatory and neuropathic pain models” (JCI Insight, 2024)",
  "system": "mice, CFA model of inflammatory pain",
  "assay": "CFA model, marble-burying test",
  "type": "in vivo, mouse",
  "experimental": "Induction of inflammatory pain (CFA model).\nInjury was induced on the right hind paw, whereas the contralateral left hind paw was used as internal control of the C57BL/6J male and female mice (Janvier, France). The inflammatory pain was induced by injection of 50 μL undiluted Complete Freund’s Adjuvant (CFA) (F5881, Sigma) unilaterally into the intraplantar surface of the right hind paw, whereas control mice were injected with the same amount of 0.9 % saline (B. Braun, Germany). All intraplantar injections were performed with an insulin needle (0.3 mL BD Micro-Fine) while the animal was under isoflurane anaesthesia (2%) for maximum 60 seconds. Von Frey was applied up to 11 days after unilateral CFA injection depending on the experiment. […]\nFor the first experiment with sustained administration of mPD5 (Figure 7C), the mice underwent a baseline von Frey reading as described in the “Mechanically-evoked pain (von Frey).”-section and SNI surgery as described in “Induction of neuropathic pain (SNI model).”-section. […] At 4,5 hours after the 10 μmol/kg mPD5 injection paw withdrawal threshold was measured again followed by a s.c. injection of 2 μmol/kg mPD5 in all animals. The PWT was measured again at 6 hours +7 hours + 8 hours + 9 hours + 10 hours + 11 hours + 22 hours + 23 hours + 25 hours + 27 hours + 49 hours + 121 hours after the initial 10 μmol/kg mPD5 injection performed on day 125. […]",
  "note": "Where “and” joins values, the source holds several entries; their conditions need not be identical. Equal entries are not always repeated.",
  "data": [
    {"smiles": "CCCCCCCCCCCCCC(=O)N(CCOCCOCCC(=O)N[C@@H](Cc1c[nH]cn1)C(=O)N[C@@H](Cc1c[nH]c2ccccc12)C(=O)N[C@@H](CC(C)C)C(=O)N[C@@H](CCCCN)C(=O)N[C@H](C(=O)O)C(C)C)CCOCCOCCC(=O)N[C@@H](Cc1c[nH]cn1)C(=O)N[C@@H](Cc1c[nH]c2ccccc12)C(=O)N[C@@H](CC(C)C)C(=O)N[C@@H](CCCCN)C(=O)N[C@H](C(=O)O)C(C)C", "note": "[mPD5, myristoyl-NPEG4-(HWLKV)2]", "values": [
      {"measurement": "effect on CFA-induced decrease in marble burying", "setting": "10 μmol/kg, to the level of the naive mice", "result": "reverted significantly"},
      {"measurement": "marbles buried, individual mice", "setting": "1 hour after s.c. 10 μmol/kg", "result": "6 and 9 and 10 and 11 and 7 and 4 and 5"}
    ]}
  ]
}
